Patent US20240197604A1, “COMPOUNDS WITH COOLING SENSATION PROPERTIES” (Givaudan SA, priority 2021, published 2024)

Columns and labels:
[1] = Sensory evaluation in model dentifrice by a panel of trained flavourists; assay type: in vivo, human; settings: 10 ppm in unflavored model dentifrice, brushing with 1 g for 60 seconds, no rinsing
Method: The oxalate of 2-(methylthio)-1-(2-(5-(p-tolyl)imidazol-2-yl)piperidin-1-yl)propan-1-one (prepared according to Example 1d) was dissolved at a concentration of 1 wt-% in propylene glycol. This solution was then dispersed in an appropriate quantity to obtain the desired final concentration of 10 ppm (parts per million) of the test compound into a model, unflavored dentifrice, the formula of which is given below (ingredients obtained from the suppliers respectively indicated in parenthesis).
A panel of trained flavourists evaluated the dentifrice containing the oxalate, by brushing their teeth with 1 g of the dentifrice using a toothbrush for 60 seconds, followed by spitting, without rinsing the mouth afterwards for the duration of the evaluation. The flavourists evaluated and recorded the cooling performance as well as other sensorial and organoleptic attributes at different time-points over a period of 90 minutes. The following tasting notes were recorded: Good coolant. Clean, with a pleasant, mild tingling effect. Active in all areas of the mouth.

hTRPM8 = biological target: T1, hTRPM8 (Homo sapiens, UniProt Q7Z2W7); assay: Assay on TRPM8 modulators: calcium imaging (Fluo-4, Flexstation 3) in HEK293 cell line stably expressing hTRPM8; assay type: cell-based; settings: HEK293 cells stably expressing hTRPM8; Fluo-4 calcium imaging; sigmoidal dose-response fit; read-out: EC50 value (TRPM8 agonist, calcium influx)
T1 construct: expressed in transfected cells
Method: A HEK293 cell line stably expressing hTRPM8 was generated according to Klein et al., (Chem. Senses 36: 649-658, 2011) and receptor activation was monitored by calcium imaging in a Flexstation. For Ca-imaging assays of TRPM8 channel activation, cells were seeded on day 0 at a density of 12000 cells per well in Dulbecco's modified Eagle medium (DMEM) containing 9% foetal bovine serum in black, clear bottom 96-well plates that had been coated with 0.001% polyethyleneimine (molecular weight=60 000, Acros Organics). On day 2, agonists were evaluated via calcium imaging using Fluo-4. Briefly, growth medium was discarded, and the cells were incubated in the dark for 1 h at 37° C. in 50 μL loading buffer consisting of 2.7 μM Fluo-4 AM (Invitrogen) and […] probenecid (Sigma-Aldrich) in DMEM (without serum). […] The cells were then washed five times with 100 μL assay buffer and then calcium influx to serial dilutions of 2-(1-(2-(methylthio)propanoyl)piperidin-2-yl)-5-(p-tolyl)-1H-imidazolium carboxyformate was measured in a Flexstation 3 (Molecular Devices). […] Fluorescence was continuously monitored for 15 seconds prior to ligand addition and for 105 seconds after ligand addition, for a total of 120 seconds. Maximal receptor activation in relation to solvent control and relative to 31.6 μM menthol is determined. […]

T1 sequence (Q7Z2W7 whole entry): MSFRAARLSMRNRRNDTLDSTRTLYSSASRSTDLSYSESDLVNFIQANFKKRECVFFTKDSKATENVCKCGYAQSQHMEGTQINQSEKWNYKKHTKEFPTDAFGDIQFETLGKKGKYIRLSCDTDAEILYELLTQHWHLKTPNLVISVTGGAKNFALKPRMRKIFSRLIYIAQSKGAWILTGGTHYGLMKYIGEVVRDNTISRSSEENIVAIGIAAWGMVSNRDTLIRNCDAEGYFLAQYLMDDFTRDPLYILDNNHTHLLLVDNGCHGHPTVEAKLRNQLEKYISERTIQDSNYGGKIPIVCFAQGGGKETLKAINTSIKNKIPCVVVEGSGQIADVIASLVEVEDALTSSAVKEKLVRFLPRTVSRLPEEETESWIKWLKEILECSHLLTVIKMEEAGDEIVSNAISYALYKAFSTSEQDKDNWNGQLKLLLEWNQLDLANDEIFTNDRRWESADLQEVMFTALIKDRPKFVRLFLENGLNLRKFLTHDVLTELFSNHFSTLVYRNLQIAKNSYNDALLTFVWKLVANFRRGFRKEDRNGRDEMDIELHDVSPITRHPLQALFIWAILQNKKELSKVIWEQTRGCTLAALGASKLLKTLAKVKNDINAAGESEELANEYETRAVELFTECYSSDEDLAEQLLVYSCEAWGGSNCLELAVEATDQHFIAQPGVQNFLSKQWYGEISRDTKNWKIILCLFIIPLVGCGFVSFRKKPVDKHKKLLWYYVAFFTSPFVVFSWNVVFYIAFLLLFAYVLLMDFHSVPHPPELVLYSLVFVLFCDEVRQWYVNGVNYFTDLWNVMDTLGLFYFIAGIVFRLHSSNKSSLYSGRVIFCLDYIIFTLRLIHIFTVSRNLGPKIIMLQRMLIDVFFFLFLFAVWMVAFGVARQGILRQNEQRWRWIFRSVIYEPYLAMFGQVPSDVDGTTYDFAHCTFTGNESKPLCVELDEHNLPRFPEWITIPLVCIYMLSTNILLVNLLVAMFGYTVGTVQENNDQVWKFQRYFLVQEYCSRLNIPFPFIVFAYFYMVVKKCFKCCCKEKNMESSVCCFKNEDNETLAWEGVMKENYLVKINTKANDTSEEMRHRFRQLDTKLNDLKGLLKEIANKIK

- EC50 (hTRPM8): < 10 nM
Compound: CSC(C)C(=O)N1CCCCC1c1ncc(-c2ccc(C)cc2)[nH]1.O=C(O)C(=O)O (stereo not shown) [Example 1d, 2-(1-(2-(methylthio)propanoyl)piperidin-2-yl)-5-(p-tolyl)-1H-imidazolium carboxyformate]
- onset of cooling effect (tasting notes) [1]: Fast acting (upfront cooling) with effect perceived already during brushing
- cooling performance (tasting notes) ([1]; evaluated over 90 minutes): Good coolant
- longevity of cooling effect (tasting notes) ([1]; evaluated over 90 minutes): Strong cooling peak with long-lasting effect up to one hour
